In this experiment the test system is P388 leukemia ip, CD2F1 mice, survival T/C. Kind of experiment: NCI In Vivo Anticancer Drug Screen. Data for tumor model P388 Leukemia (intraperitoneal) in CD2F1 (CDF1) mice. The following applies: endpoint: median survival time, higher = longer survival. The essentials: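 Mice carrying the transplanted tumor received test compound or vehicle. Survival was recorded in each group, and the value is the treated-group measurement divided by that of the vehicle-treated control group.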

[1] abbreviates: dose: 50.0 mg/kg/injection, schedule: Q01DX009 (ip), vehicle: saline with Tween-80.
Where [2] appears, read: dose: 100.0 mg/kg/injection, schedule: Q01DX009 (ip), vehicle: saline with Tween-80.
The mark [3] stands for this setting: dose: 200.0 mg/kg/injection, schedule: Q01DX009 (ip), vehicle: saline with Tween-80.
Where [4] appears, read: dose: 60.0 mg/kg/injection, schedule: Q01DX005 (ip), vehicle: saline with Tween-80.
[5] abbreviates: dose: 120.0 mg/kg/injection, schedule: Q01DX005 (ip), vehicle: saline with Tween-80.
Where [6] appears, read: dose: 240.0 mg/kg/injection, schedule: Q01DX005 (ip), vehicle: saline with Tween-80.
Setting [7] is: dose: 50.0 mg/kg/injection, schedule: Q01DX009 (ip), vehicle: Klucel (hydroxypropylcellulose) (HPC).
The mark [8] stands for this setting: dose: 100.0 mg/kg/injection, schedule: Q01DX009 (ip), vehicle: Klucel (hydroxypropylcellulose) (HPC).

“And” between values parts separate entries of the source, which are not always exact repeats. Equal entries are not always repeated. Inconclusive results and toxic doses are left out.

In the case of `Cc1ccc(S(=O)(=O)N/N=c2\ccc3ccccc3n2C)cc1`, the T/C is 100 % of control (dose: 100.0 mg/kg/injection, schedule: Q04DX002 (ip), vehicle: saline); 99 % of control (dose: 200.0 mg/kg/injection, schedule: Q04DX002 (ip), vehicle: saline); 101 % of control (dose: 400.0 mg/kg/injection, schedule: Q04DX002 (ip), vehicle: saline).

Consider `CS(=O)(=O)OCCN(CCOS(C)(=O)=O)c1ccc(C=Nc2ccc3oc(=O)ccc3c2)cc1`, for which the T/C was 104 % of control under setting [1]; 113 % of control under setting [2]; 150 % of control (dose: 132.0 mg/kg/injection, schedule: Q04DX003 (ip), vehicle: saline with Tween-80); 122 % of control (dose: 300.0 mg/kg/injection, schedule: Q04DX003 (ip), vehicle: saline with Tween-80).

`CN1C(=O)C23CC4=CC=CC(O)C4N2C(=O)C1(CO)SS3` (centres undefined): the T/C by setting is: (dose: 0.62 mg/kg/injection, schedule: Q04DX002 (ip), vehicle: saline with Tween-80) 103 % of control; (dose: 1.25 mg/kg/injection, schedule: Q04DX002 (ip), vehicle: saline with Tween-80) 104 % of control; (dose: 2.5 mg/kg/injection, schedule: Q04DX002 (ip), vehicle: saline with Tween-80) 119 % of control.

Consider `O=S(=O)(O)C(O)C(F)(F)C(F)(F)C(F)(F)C(F)(F)C(O)S(=O)(=O)O` (centres undefined), for which the T/C runs as follows: (dose: 60.0 mg/kg/injection, schedule: Q01DX005 (ip), vehicle: saline) 103 % of control; (dose: 120.0 mg/kg/injection, schedule: Q01DX005 (ip), vehicle: saline) 103 % of control; (dose: 240.0 mg/kg/injection, schedule: Q01DX005 (ip), vehicle: saline) 103 % of control.

Take `Cc1ccccc1N=Nc1ccc(N=Nc2cc(CN(C)C)c(O)c3ncccc23)c(C)c1`: the T/C (dose: 50.0 mg/kg/injection, schedule: Q01DX005 (ip), vehicle: saline with Tween-80) was 102 % of control; the T/C (dose: 100.0 mg/kg/injection, schedule: Q01DX005 (ip), vehicle: saline with Tween-80) is 95 % of control; the T/C (dose: 200.0 mg/kg/injection, schedule: Q01DX005 (ip), vehicle: saline with Tween-80) is 109 % of control.

Turning to `O=C1OC(=O)C2C1C1(c3ccccc3)OC2(c2ccccc2)c2ccccc21` (centres undefined), the T/C by setting is: (dose: 100.0 mg/kg/injection, schedule: Q04DX003 (ip), vehicle: saline with Tween-80) 110 % of control; (dose: 200.0 mg/kg/injection, schedule: Q04DX003 (ip), vehicle: saline with Tween-80) 109 % of control; (dose: 400.0 mg/kg/injection, schedule: Q04DX003 (ip), vehicle: saline with Tween-80) 118 % of control.

Turning to `Cc1ccc(NC(=O)Oc2ccc(OCc3ccccc3)cc2)c([N+](=O)[O-])c1`, the T/C reads like this: under setting [1], 99 % of control; under setting [2], 97 % of control; under setting [3], 95 % of control.

Regarding `COC(=O)c1cc(-c2ccc(Cl)c(Cl)c2)[nH]c(=O)c1C#N`, the T/C is 100 % of control under setting [4], 103 % of control under setting [5] and 94 % of control under setting [6].

With `Cc1cc(Cl)ccc1S(=O)(=O)F`, the T/C by setting is: under setting [1], 113 % of control; under setting [2], 113 % of control; under setting [3], 98 % of control.

Turning to `CCOC(=O)C1=C(C)N[C@H](c2ccccc2[N+](=O)[O-])N[C@H]1c1ccccc1[N+](=O)[O-]`, the T/C reads like this: (dose: 12.5 mg/kg/injection, schedule: Q01DX005 (ip), vehicle: Klucel (hydroxypropylcellulose) (HPC)) 105 % of control; (dose: 25.0 mg/kg/injection, schedule: Q01DX005 (ip), vehicle: Klucel (hydroxypropylcellulose) (HPC)) 94 % of control; (dose: 50.0 mg/kg/injection, schedule: Q01DX005 (ip), vehicle: Klucel (hydroxypropylcellulose) (HPC)) 88 % of control and 92 % of control.

For the compound `NC(=S)N1CC=CCC1`, the T/C by setting is: under setting [7], 99 % of control; under setting [8], 101 % of control; (dose: 200.0 mg/kg/injection, schedule: Q01DX009 (ip), vehicle: Klucel (hydroxypropylcellulose) (HPC)) 101 % of control.

For the compound `C=C(C)C1CC2(C)C(C)CC(O)CC2C(OC(=O)C=C(C)C)C1O` (centres undefined), the T/C was 93 % of control (dose: 25.0 mg/kg/injection, schedule: Q01DX009 (ip), vehicle: Klucel (hydroxypropylcellulose) (HPC)); 96 % of control under setting [7]; 97 % of control under setting [8].

As to `CCCCCCCC(=O)NN`, the T/C runs as follows: (dose: 12.5 mg/kg/injection, schedule: Q01DX009 (ip), vehicle: suspension in saline) 96 % of control; (dose: 25.0 mg/kg/injection, schedule: Q01DX009 (ip), vehicle: suspension in saline) 96 % of control; (dose: 50.0 mg/kg/injection, schedule: Q01DX009 (ip), vehicle: suspension in saline) 97 % of control; (dose: 100.0 mg/kg/injection, schedule: Q01DX009 (ip), vehicle: suspension in saline) 96 % of control.

As for `CCOC(=O)NOP(=O)(N1CC1(C)C)N1CC1(C)C` (centres undefined), the T/C was 107 % of control (dose: 62.5 mg/kg/injection, schedule: Q01DX001 (ip), vehicle: saline + alcohol); 117 % of control (dose: 125.0 mg/kg/injection, schedule: Q01DX001 (ip), vehicle: saline + alcohol); 150 % of control (dose: 250.0 mg/kg/injection, schedule: Q01DX001 (ip), vehicle: other); 120 % of control (dose: 250.0 mg/kg/injection, schedule: Q01DX001 (ip), vehicle: saline + alcohol); 163 % of control (dose: 500.0 mg/kg/injection, schedule: Q01DX001 (ip), vehicle: other); 150 % of control (dose: 500.0 mg/kg/injection, schedule: Q01DX001 (ip), vehicle: saline + alcohol).

`CNC(=S)N/N=C(\C)c1ccccn1`: the T/C (dose: 12.5 mg/kg/injection, schedule: Q01DX009 (ip), vehicle: saline with Tween-80) was 107 % of control and 117 % of control; the T/C (dose: 25.0 mg/kg/injection, schedule: Q01DX009 (ip), vehicle: saline with Tween-80) was 116 % of control.

Take `N=C(N)n1cc(/C=N/N=C(N)N)cn1`: the T/C by setting is: under setting [4], 102 % of control; under setting [5], 103 % of control.

Turning to `CCOC(=O)N1c2ccccc2N(C(=O)OCC)C1C#N`, the T/C is, setting by setting: under setting [4], 97 % of control; under setting [5], 96 % of control; under setting [6], 87 % of control.

`CCC1(O)CN2CCc3c([nH]c4ccccc34)C1C(/C=C(\C(=O)OC)c1cc3c(cc1OC)N(C)C1C(O)(C(=O)OC)C(OC(C)=O)C4(CC)C=CCN5CCC31C54)C2` (centres undefined): the T/C (dose: 1.0 mg/kg/injection, schedule: Q01DX001 (ip), vehicle: distilled water + Tween-80) is 102 % of control; the T/C (dose: 2.0 mg/kg/injection, schedule: Q01DX001 (ip), vehicle: distilled water + Tween-80) is 100 % of control; the T/C (dose: 2.0 mg/kg/injection, schedule: Q01DX009 (ip), vehicle: distilled water + alcohol) was 160 % of control; the T/C (dose: 4.0 mg/kg/injection, schedule: Q01DX001 (ip), vehicle: distilled water + Tween-80) was 100 % of control; the T/C (dose: 4.0 mg/kg/injection, schedule: Q01DX009 (ip), vehicle: distilled water + alcohol) is 152 % of control; the T/C (dose: 8.0 mg/kg/injection, schedule: Q01DX001 (ip), vehicle: distilled water + Tween-80) is 102 % of control. The T/C was 112 % of control (dose: 16.0 mg/kg/injection, schedule: Q01DX001 (ip), vehicle: distilled water + Tween-80) and 100 % of control (dose: 32.0 mg/kg/injection, schedule: Q01DX001 (ip), vehicle: distilled water + Tween-80).

For `CCCN(CCC)CCN1C(=O)NC(C)(c2ccccc2)C1=O` (centres undefined), the T/C by setting is: (dose: 7.5 mg/kg/injection, schedule: Q01DX005 (ip), vehicle: saline with Tween-80) 100 % of control; (dose: 15.0 mg/kg/injection, schedule: Q01DX005 (ip), vehicle: saline with Tween-80) 101 % of control and 97 % of control; (dose: 30.0 mg/kg/injection, schedule: Q01DX005 (ip), vehicle: saline with Tween-80) 99 % of control and 103 % of control; under setting [4], 101 % of control and 94 % of control and 97 % of control.

For `COc1ccc(Cc2cc3c(cc2OCC(N)=O)OCO3)cc1`, the T/C by setting is: (dose: 6.25 mg/kg/injection, schedule: Q01DX005 (ip), vehicle: saline with Tween-80) 90 % of control; (dose: 12.5 mg/kg/injection, schedule: Q01DX005 (ip), vehicle: saline with Tween-80) 90 % of control.

`COC1=CC(C)C2CC3OC(O)CC4C(C)=C(OC)C(=O)C(C2(C)C1=O)C34C` (centres undefined): the T/C is 94 % of control (dose: 60.0 mg/kg/injection, schedule: Q01DX005 (ip), vehicle: Klucel (hydroxypropylcellulose) (HPC)); 94 % of control (dose: 120.0 mg/kg/injection, schedule: Q01DX005 (ip), vehicle: Klucel (hydroxypropylcellulose) (HPC)); 89 % of control (dose: 240.0 mg/kg/injection, schedule: Q01DX005 (ip), vehicle: Klucel (hydroxypropylcellulose) (HPC)).

On to `CC(CC(=O)O)(CC(=O)O)CC(=O)O`, for which the T/C was 110 % of control under setting [1], 101 % of control under setting [2] and 97 % of control under setting [3].

For the origin of these results see PubChem BioAssay AID330 (DTP/NCI, 2004).
